Experiment [1] has as its system AVPR1A^CeA neurons. In words: Chemogenetic activation of AVPR1A^CeA neurons by CNO (cFos smFISH). Format: in vivo, mouse. As to conditions: Avpr1a-Cre mice injected with the DREADD-Gq virus; single injection 1.5 mg/kg, i.p. From the text:
(A) Heat map for the expression of the 300 top genes at […], 7, 13 and 22 weeks of age (n=3). […] (D) Vgat and AVPR1A expression detected with smFISH in a coronal section of the CeA at bregma-1.34 mm. (E) Quantification of AVPR1A^CeA neurons. (F) AVPR1A-Cre::tdTomato reporter expression in a coronal section of the CeA at bregma-1.34 mm. (G-L) Chemogenetic activation of AVPR1A^CeA neurons. (G) Schematic of bilateral injections of AAV-DIO-DREADD-Gq-mCherry (closed circles) vs. AAV-DIO-mCherry controls (open circles) in the CeA of Avpr1a-Cre adult mice. (H) Expression of the viral mCherry reporter in the CeA. High-magnification image showing Avpr1a and cFos expression detected with smFISH 1 h after CNO injections in mice injected with control (lower panel) and DREADD-Gq-mCherry (upper panel) AAVs. (I-L) Effects of CNO injections on marble burying (I), time spent in the open arms of the EPM (J), time spent in the center of the open field (K), and distance traveled in the open field (L) in mice injected with control and DREADD-Gq AAVs (n=6-9). Data are presented as means+/−SEM in E.
We utilized a chemogenetic approach to overcome this technical issue that prevented direct comparisons of males and females. […]

Experiment [2] concerns WT mice. In words: Marble burying assay after i.p. antagonist injection. As to conditions: 2 mg/kg. The format is in vivo, mouse. On the procedure:
Chronic social Isolation: Mice were singly housed at 5 weeks of age for 7 weeks in standard cages. Control groups included mice isolated at 8 weeks of age for 2 weeks, or at 8 weeks of age for 7 weeks. An additional control group included mice socially isolated at 8 weeks of age for 7 weeks and regrouped at 15 weeks for 3 weeks.
All behavioral assays were performed after lights out (7 pm).
Marble burying: Standard cages were filled with fresh bedding to a depth of 2.5 in and 15 marbles were evenly spaced across the bedding. […] At the end of the assay, the number of marbles buried was estimated visually. A marble was considered buried if at least ¾ of its surface was covered by the bedding.
Peripheral antagonist injections: Injections of SRX246 (AVPR1A antagonist, 2 mg/kg, i.p.), SR49059 (AVPR1A antagonist, 2 mg/kg, i.p.), SSR149415 (AVPR1B antagonist, 2 mg/kg, i.p.), d(CH2)5Tyr(Me)-[Orn8]-vasotocin (Oxytocin receptor antagonist, 2 mg/kg, i.p.), or 1% DMSO (Sigma Aldrich, i.p.) were performed in WT adults.

Experiment [3] has as its system central AVPR1A circuits. Briefly: Food intake following amygdala injection of AVP. The format is in vivo, mouse.
Experiment [4] concerns male rats. The following applies: males; AVP delivered into the CeA (Hernandez et al., 2016; Hernandez-Perez et al., 2018); cited from earlier work.
For experiment [5], the system named is WT and Avpr1a-/- females. Briefly: Marble burying after bilateral intra-CeA AVP injection. The format is in vivo, mouse. The following applies: 1 ng AVP bilateral. As to the method: For cannulations, ophthalmic ointment and analgesics were administered (buprenorphine, 0.1 mg/kg or buprenorphine Ethiqa XR, 3.25 mg/kg, and carprofen, 5 mg/kg, subcutaneous). Two cannulas (Model C317GS, Plastics One) were placed by drilling holes at the following coordinates: +/−2.4 mm lateral, −1.4 mm anteroposterior and −4.6 mm ventral from Bregma. Implants were secured by dental cement and protected with a cap (Model C317DCS, Plastics One).
Marble burying: Standard cages were filled with fresh bedding to a depth of 2.5 in and 15 marbles were evenly spaced across the bedding. Animals were placed in the cage for 30 min and allowed to ambulate freely. At the end of the assay, the number of marbles buried was estimated visually. A marble was considered buried if at least ¾ of its surface was covered by the bedding.
Intra-amygdala AVP injections: Prior to marble burying, adult WT and Avpr1a^−/− females were bilaterally injected with 1 ng of AVP or 0.9% saline via in-dwelling cannulas using a Hamilton syringe (Hamilton 7635-01) connected to an injector (Model C317IS, Plastics One).

“Also recorded” adds a separate entry of the source. Bridge positions count the residues as written; N and C are the ends. Ends that are not written are not given here.

Turning to `C[N+]1([O-])CCN(C2=Nc3cc(Cl)ccc3Nc3ccccc32)CC1` [CNO, clozapine-N-oxide], the “activation of AVPR1A^CeA neurons” value in experiment [1] is on record as “acutely activated AVPR1A^CeA neurons”.
As to `COc1ccc(S(=O)(=O)N2c3ccc(Cl)cc3[C@](O)(c3ccccc3Cl)[C@@H]2C(=O)N2CCC[C@H]2C(N)=O)cc1OC` [SR49059], the marble burying result in experiment [2] (female WT mice exposed to >7 weeks CSIS starting at 5 or 8 weeks of age) and in experiment [2] (male WT mice exposed to >7 weeks CSIS starting at 5 or 8 weeks of age) was “had no effect” in each case. Also, the “food intake: blockade of the anorexigenic effects of AVP” value in experiment [3] (AVP (0.3 ng) injected in the amygdala, peripheral injection of antagonist (Manning compound; SR49059 2 mg/kg)) is reported as “does not restore food intake”.
In the case of “d(CH2)5Tyr(Me)-[Orn8]-vasotocin [OXR antagonist]”, the “marble burying (15 min)” value in experiment [2] (female mice exposed to CSIS) and in experiment [2] (male mice exposed to CSIS) was “did not affect behavior in females or males” in each case.
“AVP: AVP (vasopressin), the AVPR1A ligand, injected into the amygdala/CeA (CYFQNCPRG-NH2; disulfide 1-6; UniProt P01185 20-28, looked up)”: the anxiety-related behaviors entry in experiment [4] is listed as “can induce anxiety-like behaviors in males; also recorded: increase anxiety-related behaviors in males; also recorded: elicited anxiety-related behaviors”. Moreover, the “marble burying / anxiety behavior” value in experiment [5] (global knockout Avpr1a-/- females) was “had no effect”; in experiment [5] (group housed WT females), “trigger anxiety behavior in WT females; also recorded: increased marble burying”. Further, the “effect on food intake” value in experiment [3] (AVP 0.3 ng injected in the amygdala) is on record as “anorexigenic effects”.
`COc1ccc(S(=O)(=O)N2C(=O)[C@@](c3ccccc3OC)(N3C[C@H](O)C[C@H]3C(=O)N(C)C)c3cc(Cl)ccc32)c(OC)c1` [AVPR1B antagonist]: the “marble burying (15 min)” value in experiment [2] (female mice exposed to CSIS) and in experiment [2] (male mice exposed to CSIS) was “did not affect behavior in females or males” each time.

The values above are taken from patent US20250195496A1, “AVPR1A BLOCKADE TO REDUCE SOCIAL ISOLATION-INDUCED ANXIETY IN FEMALES” (THE TRUSTEES OF COLUMBIA UNIVERSITY IN THE CITY OF NEW YORK, priority 2022, published 2025).
